According to US12661345B2, “Compositions for the treatment of hypertension” (The George Institute for Global Health, priority 2017, dated 2026):

Tests used:
LDL = LDL laboratory test in the 3×3 factorial trial; type: in vivo, human; conditions: Week 12 v/s Baseline
Procedure: (§1) There was a 4 week screening period and another 4-week post study drug observational period.
(§2) Group 2 received the low-dose BP lowering combination and simvastatin (i.e., telmisartan 20 mg+amlodipine 2.5 mg+simvastatin). Group 3 received the low-dose BP lowering combination and placebo (i.e., telmisartan 20 mg+amlodipine 2.5 mg+placebo). […] Group 9 received double placebo.
Change in DBP and SBP • 2. Change in LDL Secondary Outcomes: • 1. Tolerability: • a. […] Difference between groups in participant withdrawals from treatment • 2. Safety: Percentage with any severe adverse event (SAE) • 3. Medication adherence: self-reported measures, pill counts BP Measurement:
Potassium (K+), sodium (Na+), serum creatinine and LDL were measured at screening and at the 12-week end of treatment follow-up visit.
(§3) All analyses of study outcomes were conducted according to the principle of intention-to-treat. The analyses of continuous outcomes such SBP and LDL-cholesterol at 12 weeks was performed using ANCOVA including the treatment arm and baseline values as a covariate. Additional analyses included interim measurements in a longitudinal model including treatment arm, visit, and treatment by visit interaction as well as the baseline measurement. Within-patient correlations were modelled using generalized estimating equations. A similar approach was applied to binary endpoints with log-binomial regression used in place of linear regression. There were also pre-defined subgroup analyses, baseline BP, baseline LDL, gender and age.

[1] = tested on: participants with migraine; test: Office blood pressure in 12-week double blind randomized 3×3 factorial trial; type: in vivo, human
Procedure: as §1
There was a 4-week screening period and another 4-week post study drug observational period.
as §2
Office BP was measured following the recommendations of the Australian National Heart Foundation. Participants were rested in the seated position for 5 minutes, an appropriate cuff size was selected and 3 measurements of BP were recorded using an Omron HEM907 monitor or equivalent validated automated digital BP monitor. Principles of automated office BP measurements were applied whereby the patient was left alone during BP recording.
as §3

[2] = tested on: participants with migraine; test: Subject status / participant withdrawals by visit in the 3×3 factorial trial
[3] = Randomization (baseline, before treatment)
[4] = Week 16 (after 4-week post study drug period)

For `CCC(C)(C)C(=O)O[C@H]1C[C@@H](C)C=C2C=C[C@H](C)[C@H](CC[C@@H]3C[C@@H](O)CC(=O)O3)[C@H]21` [Simvastatin, simvastatin], the “Change in LDL from baseline to 12 weeks Mean (SD)” value (LDL) was 9 −1.0 (0.38) mmol/l, the “Change in LDL from baseline to 12 weeks Q1” value (LDL) was -1.2 mmol/L and the “Change in LDL from baseline to 12 weeks Q2” value (LDL) was -1.0 mmol/L. For the same compound, the “Change in LDL from baseline to 12 weeks Q3” value (LDL) was -0.8 mmol/L, the “Change in LDL from baseline to 12 weeks max” value (LDL) was -1 mmol/L and the “Change in LDL from baseline to 12 weeks min” value (LDL) was -2 mmol/L. For the same compound, the “Diastolic Blood Pressure Mean (SD)” value [1, 3] was 9 82.7 (8.43) mmHg, the “Diastolic Blood Pressure Q1” value [1, 3] was 76.0 mmHg and the “Diastolic Blood Pressure Q2” value [1, 3] was 81.0 mmHg. For the same compound, the “Diastolic Blood Pressure Q3” value [1, 3] was 89.0 mmHg, the “Diastolic Blood Pressure max” value [1, 3] was 96 mmHg and the “Diastolic Blood Pressure min” value [1, 3] was 72 mmHg. For the same compound, the “Systolic Blood Pressure Mean (SD)” value [1, 3] was 9 124.2 (13.17) mmHg, the “Systolic Blood Pressure Q1” value [1, 3] was 114.7 mmHg and the “Systolic Blood Pressure Q2” value [1, 3] was 123.0 mmHg. The “Systolic Blood Pressure Q3” value [1, 3] was 132.7 mmHg, the “Systolic Blood Pressure max” value [1, 3] was 147 mmHg and the “Systolic Blood Pressure min” value [1, 3] was 107 mmHg. For the same compound, the “Diastolic Blood Pressure Mean (SD)” value ([1]; Week 4) was 9 77.5 (6.98) mmHg, the “Diastolic Blood Pressure Q1” value ([1]; Week 4) was 74.0 mmHg and the “Diastolic Blood Pressure Q2” value ([1]; Week 4) was 77.7 mmHg. For the same compound, the “Diastolic Blood Pressure Q3” value ([1]; Week 4) was 81.3 mmHg, the “Diastolic Blood Pressure max” value ([1]; Week 4) was 90 mmHg and the “Diastolic Blood Pressure min” value ([1]; Week 4) was 68 mmHg. The “Systolic Blood Pressure Mean (SD)” value ([1]; Week 4) was 9 122.2 (14.06) mmHg, the “Systolic Blood Pressure Q1” value ([1]; Week 4) was 113.7 mmHg and the “Systolic Blood Pressure Q2” value ([1]; Week 4) was 119.3 mmHg. The “Systolic Blood Pressure Q3” value ([1]; Week 4) was 126.7 mmHg, the “Systolic Blood Pressure max” value ([1]; Week 4) was 146 mmHg and the “Systolic Blood Pressure min” value ([1]; Week 4) was 102 mmHg. The “Diastolic Blood Pressure Mean (SD)” value ([1]; Week 8) was 9 77.1 (6.07) mmHg, the “Diastolic Blood Pressure Q1” value ([1]; Week 8) was 72.3 mmHg and the “Diastolic Blood Pressure Q2” value ([1]; Week 8) was 78.7 mmHg. The “Diastolic Blood Pressure Q3” value ([1]; Week 8) was 81.7 mmHg, the “Diastolic Blood Pressure max” value ([1]; Week 8) was 84 mmHg and the “Diastolic Blood Pressure min” value ([1]; Week 8) was 68 mmHg. The “Systolic Blood Pressure Mean (SD)” value ([1]; Week 8) was 9 117.0 (11.50) mmHg, the “Systolic Blood Pressure Q1” value ([1]; Week 8) was 111.0 mmHg and the “Systolic Blood Pressure Q2” value ([1]; Week 8) was 115.3 mmHg. The “Systolic Blood Pressure Q3” value ([1]; Week 8) was 124.3 mmHg, the “Systolic Blood Pressure max” value ([1]; Week 8) was 135 mmHg and the “Systolic Blood Pressure min” value ([1]; Week 8) was 95 mmHg. For the same compound, the “Diastolic Blood Pressure Mean (SD)” value ([1]; Week 12 (end of treatment)) was 9 78.4 (10.70) mmHg, the “Diastolic Blood Pressure Q1” value ([1]; Week 12 (end of treatment)) was 78.3 mmHg and the “Diastolic Blood Pressure Q2” value ([1]; Week 12 (end of treatment)) was 81.3 mmHg. The “Diastolic Blood Pressure Q3” value ([1]; Week 12 (end of treatment)) was 85.7 mmHg, the “Diastolic Blood Pressure max” value ([1]; Week 12 (end of treatment)) was 87 mmHg and the “Diastolic Blood Pressure min” value ([1]; Week 12 (end of treatment)) was 54 mmHg. For the same compound, the “Systolic Blood Pressure Mean (SD)” value ([1]; Week 12 (end of treatment)) was 9 117.8 (14.06) mmHg, the “Systolic Blood Pressure Q1” value ([1]; Week 12 (end of treatment)) was 111.0 mmHg and the “Systolic Blood Pressure Q2” value ([1]; Week 12 (end of treatment)) was 120.0 mmHg. The “Systolic Blood Pressure Q3” value ([1]; Week 12 (end of treatment)) was 125.7 mmHg, the “Systolic Blood Pressure max” value ([1]; Week 12 (end of treatment)) was 135 mmHg and the “Systolic Blood Pressure min” value ([1]; Week 12 (end of treatment)) was 88 mmHg. For the same compound, the “Change in DBP from baseline to 12 weeks Mean (SD)” value ([1]; Week 12 v/s Baseline) was 9 −4.3 (8.95) mmHg, the “Change in DBP from baseline to 12 weeks Q1” value ([1]; Week 12 v/s Baseline) was −8.7 mmHg and the “Change in DBP from baseline to 12 weeks Q2” value ([1]; Week 12 v/s Baseline) was −3.7 mmHg. For the same compound, the “Change in DBP from baseline to 12 weeks Q3” value ([1]; Week 12 v/s Baseline) was −0.7 mmHg, the “Change in DBP from baseline to 12 weeks max” value ([1]; Week 12 v/s Baseline) was 9 mmHg and the “Change in DBP from baseline to 12 weeks min” value ([1]; Week 12 v/s Baseline) was −22 mmHg. The “Change in SBP from baseline to 12 weeks Mean (SD)” value ([1]; Week 12 v/s Baseline) was 9 −6.4 (8.24) mmHg, the “Change in SBP from baseline to 12 weeks Q1” value ([1]; Week 12 v/s Baseline) was −12.0 mmHg and the “Change in SBP from baseline to 12 weeks Q2” value ([1]; Week 12 v/s Baseline) was −4.7 mmHg. For the same compound, the “Change in SBP from baseline to 12 weeks Q3” value ([1]; Week 12 v/s Baseline) was 0.3 mmHg, the “Change in SBP from baseline to 12 weeks max” value ([1]; Week 12 v/s Baseline) was 5 mmHg and the “Change in SBP from baseline to 12 weeks min” value ([1]; Week 12 v/s Baseline) was −19 mmHg. The “Diastolic Blood Pressure Mean (SD)” value [1, 4] was 9 80.5 (7.29) mmHg, the “Diastolic Blood Pressure Q1” value [1, 4] was 74.3 mmHg and the “Diastolic Blood Pressure Q2” value [1, 4] was 80.7 mmHg. For the same compound, the “Diastolic Blood Pressure Q3” value [1, 4] was 87.0 mmHg, the “Diastolic Blood Pressure max” value [1, 4] was 90 mmHg and the “Diastolic Blood Pressure min” value [1, 4] was 71 mmHg. The “Systolic Blood Pressure Mean (SD)” value [1, 4] was 9 118.3 (10.11) mmHg, the “Systolic Blood Pressure Q1” value [1, 4] was 109.7 mmHg and the “Systolic Blood Pressure Q2” value [1, 4] was 116.7 mmHg. The “Systolic Blood Pressure Q3” value [1, 4] was 123.0 mmHg, the “Systolic Blood Pressure max” value [1, 4] was 136 mmHg and the “Systolic Blood Pressure min” value [1, 4] was 107 mmHg. The “Discontinuing the study (n/N)” value ([2]; Week 4) was 0/9, the “Discontinuing the study (percent)” value ([2]; Week 4) was “(0.0%)” and the “Discontinuing: Deceased (n/N)” value ([2]; Week 4) was 0/0. The “Discontinuing: Deceased (percent)” value ([2]; Week 4) was “(0.0%)”, the “Discontinuing the study (n/N)” value ([2]; Week 8) was 0/9 and the “Discontinuing the study (percent)” value ([2]; Week 8) was “(0.0%)”. The “Discontinuing: Deceased (n/N)” value ([2]; Week 8) was 0/0, the “Discontinuing: Deceased (percent)” value ([2]; Week 8) was “(0.0%)” and the “Discontinuing the study (n/N)” value ([2]; Week 12) was 0/9. For the same compound, the “Discontinuing the study (percent)” value ([2]; Week 12) was “(0.0%)”, the “Discontinuing: Deceased (n/N)” value ([2]; Week 12) was 0/0 and the “Discontinuing: Deceased (percent)” value ([2]; Week 12) was “(0.0%)”. The “Deceased (n/N)” value ([2]; Week 16) was 0/9 and the “Deceased (percent)” value ([2]; Week 16) was “(0.0%)”.
